“Also recorded” adds a separate entry of the source.
How the values were obtained:
[1] = target: T1, carnitine acetyltransferase (CAT) (Columba livia, UniProt P52826); assay: Initial screening of CAT inhibition, spectrophotometric kinetic method with Ellman's reagent; assay type: biochemical; details: read in first minute of reaction; for inhibition at 100 µM: read-out: CAT inhibition (%), inhibitor 100 μM; for inhibition at 250 µM: read-out: CAT inhibition (%), inhibitor 250 μM; for inhibition at 1000 µM: read-out: CAT inhibition (%), inhibitor 1000 μM
T1 construct: an enzyme isolated from pigeon breast muscle (Sigma Aldrich) was used in the form of an ammonium sulfate suspension; tissue Sigma-Aldrich; host or cells: pigeon breast muscle
T1 sequence (P52826 31-627): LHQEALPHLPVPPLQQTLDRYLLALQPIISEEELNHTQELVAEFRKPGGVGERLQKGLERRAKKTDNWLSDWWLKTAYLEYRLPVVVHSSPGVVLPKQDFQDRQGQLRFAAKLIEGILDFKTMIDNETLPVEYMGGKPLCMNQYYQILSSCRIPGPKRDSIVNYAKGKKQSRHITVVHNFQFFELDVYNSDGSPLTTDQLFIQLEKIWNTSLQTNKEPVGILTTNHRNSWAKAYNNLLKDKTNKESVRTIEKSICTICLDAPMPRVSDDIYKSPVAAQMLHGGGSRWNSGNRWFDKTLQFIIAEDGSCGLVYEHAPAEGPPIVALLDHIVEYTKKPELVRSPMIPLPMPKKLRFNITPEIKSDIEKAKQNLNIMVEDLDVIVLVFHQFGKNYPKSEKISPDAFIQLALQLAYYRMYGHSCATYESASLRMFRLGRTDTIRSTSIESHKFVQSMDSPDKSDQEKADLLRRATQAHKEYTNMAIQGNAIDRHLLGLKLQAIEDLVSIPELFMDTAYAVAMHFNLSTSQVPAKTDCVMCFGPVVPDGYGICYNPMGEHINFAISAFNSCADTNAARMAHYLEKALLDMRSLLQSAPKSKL
Experimental: To assess the inhibitory potential of the synthesized compounds against CAT, we conducted an initial screening at three concentrations: 100 μM, 250 μM and 1000 μM. Readings were taken within the first minute after the reaction started, and inhibition was measured using a kinetic method, as described in the Experimental section. The results are summarized and presented as a percentage of inhibition in Figure 2 and Figure 3 for the 3-alkyl-3,4-dihydroisocoumarin-4-carboxylic acids and the 3-alkyl/3-aryl-6,7-dimethoxy-3,4-dihydroisocoumarin-4-carboxylic acids, respectively.
To determine the effect of the synthesized compounds on CAT activity, a modified procedure for spectrophotometric determination of L-carnitine using Ellman’s reagent was used. In all analyses, an enzyme isolated from pigeon breast muscle (Sigma Aldrich) was used in the form of an ammonium sulfate suspension with an activity of 71 U/mg protein. One unit of enzyme catalyzes the conversion of 1 μmol of L-carnitine and acetyl-CoA into acetylcarnitine and free CoA in 1 min. Phosphate buffer (0.5 M, pH = 7.6) is used to dilute the enzyme to obtain a stock solution with a concentration of 24 U/mL.
Ellman’s reagent was prepared immediately before each measurement by dissolving 25 mg DTNB in 5 mL 1 mM solution of Na2EDTA in phosphate buffer (0.5 M, pH = 7.6). Stock solutions of acetyl-CoA and L-carnitine were prepared in deionized water with concentrations of 348.0 μM and 303.4, respectively. An aqueous solution of tris (hydroxymethyl) aminomethane (TRIS) with pH = 7.6 and 1 M concentration was used as a buffer solution. Test compounds were dissolved and diluted in phosphate buffer (0.5 M, pH = 7.6) to the desired stock concentration. The working volume of the reaction is 300 μL and contains 50 μL of each of the six components (DTNB, TRIS, acetyl-CoA, CAT, L-carnitine and inhibitor) solutions with concentrations as described below. In the control samples, the inhibitor solution is replaced with phosphate buffer (0.5 M, pH = 7.6). The incubation time for all components without L-carnitine is 5 min at 37 °C. The reaction was started by adding L-carnitine, and its progress was monitored by reading the change in absorbance at 405 nm in kinetic mode. The concentrations of the components in the final volume were, c (DTNB) = 114 μM, c (TRIS) = 100 mM, c (acetyl-CoA) = 58 μM, c (CAT) = 4 U/mL and c (L-carnitine) = 50.56 μM. The time for reading the results was the first minute after starting the reaction.

[2] = target: T1, carnitine acetyltransferase (CAT); assay: Kinetic studies of CAT inhibition mechanism (Michaelis-Menten / Lineweaver-Burk, SigmaPlot regression); assay type: biochemical, pigeon; details: for Ki: mixed-type inhibition model, L-carnitine varied; for Type / mechanism of inhibition: model chosen by R^2, AIC and Sy,x
Description: These experiments allowed us to identify the inhibition mechanism and calculate Km, Vmax and Ki. We used SigmaPlot version 12.5 (Systat Software Inc., San Jose, CA, USA), which includes modules for regression analysis and various inhibition models. This software also lets us choose the mechanism of inhibition with the highest correlation factors (coefficient of determination (R^2) and Akaike information coefficient (AIC)) and the lowest Sy,x value. The numerical results are summarized in Table 1, while the corresponding Lineweaver–Burk and Michaelis–Menten kinetic plots are available in the Supplementary Materials.
(Michaelis-Menten) and 1/v0 vs. […] (Lainweaver-Burke) relationships. For this purpose, five solutions with different concentrations of the inhibitor and five solutions with different concentrations of L-carnitine were prepared. […] The time for reading the results is every six seconds for three minutes after the start of the reaction, which corresponds to the end of the linear interval. The initial velocity v0 was determined using the method proposed by Baici, by calculating the cut-off of the v vs. t (time) dependence for the linear interval of each of the reactions. Graphical dependencies are provided in the Supplementary Materials (Figures S1–S3).
Figure S2. Graphs representing the dependence of the initial velocity (v 0) on the concentration of the substrate [S], according to the model of Michaelis -Menten – left, and Lineweaver-Burk – right, for reversible a) mixed, b) non-competitive, c) uncompetitive and d) competitive inhibition. The concentration of the inhibitor - compound cis-8 are 0 μM, 25.6 μM, 51.2 μM and 68.3 μM, concentration of L-carnitine are 94 μM, 180 μM, 370 μM, 750 μM and 1500 μM.
Figure S3. Graphs representing the dependence of the initial velocity (v 0) on the concentration of […]
for reversible a) mixed, b) uncompetitive, c) non-competitive and d) competitive inhibition. The concentration of the inhibitor - compound trans-8 are 0 μM, 26.0 μM, 52.0 and 69.4 μM,

[3] = target: carnitine acetyltransferase (CAT); set-up: method as in PMID 39942839; details: positive control; ref [21]; cited from earlier work
[4] = fit to competitive inhibition model
[5] = fit to non-competitive inhibition model
[6] = fit to uncompetitive inhibition model
[7] = non-competitive inhibition model

SMILES: CCCCCCCC1OC(=O)c2ccccc2C1C(=O)O (racemic) [trans-2, Cis- and Trans-(±)-3-Heptyl-3,4-Dihydro-1-Oxo-1H-Isochromene-4-Carboxylic Acids]
- CAT inhibition (%) ([1]; inhibitor 100 μM, 100 µM): 4%
- CAT inhibition (%) ([1]; inhibitor 250 μM, 250 µM): 6%
- CAT inhibition (%) ([1]; inhibitor 1000 μM, 1000 µM): 25%

SMILES: CCCCCCCCCCC1OC(=O)c2cc(OC)c(OC)cc2C1C(=O)O (racemic) [trans-8, Cis- and Trans-(±)-3-Decyl-3,4-Dihydro-6,7-Dimethoxy-1-Oxo-1H-Isochromene-4-Carboxylic Acids]
- AIC [2, 4]: −1490.723
- Sy,x [2, 4]: 7.493 × 10^−9
- AIC ([2]; fit to mixed inhibition model): −1548.364
- Sy,x ([2]; fit to mixed inhibition model): 3.576 × 10^−9
- AIC [2, 5]: −1542.332
- Sy,x [2, 5]: 3.931 × 10^−9
- AIC [2, 6]: −1548.795
- Sy,x [2, 6]: 3.626 × 10^−9
- α ([2]; mixed inhibition model): 0.21
- Ki [2]: 377 µM
- Type / mechanism of inhibition [2]: mixed-type inhibitors
- Type / mechanism of inhibition ([2]; listed as trans-3-decyl-6,7-dimethoxy-3,4-dihydroisocoumarin-4-carboxylic acid): mixed inhibition
- α [2, 7]: 1

SMILES: C[N+](C)(C)NCCC(=O)[O-] [Meldonium]
- IC50 [3]: 11400 µM

SMILES: COc1ccc(OC)c(C2OC(=O)c3cc(OC)c(OC)cc3C2C(=O)O)c1 (stereo not drawn) [cis-11, Cis- and Trans-(±)-3,4-Dihydro-3-(2,5-Dimethoxyphenyl)-6,7-Dimethoxy-1-Oxo-1H-Isochromene-4-Carboxylic Acids]
- inhibition at 100 µM [1]: 1%
- inhibition at 250 µM [1]: 6%
- inhibition at 1000 µM [1]: 22%

SMILES: COc1cc2c(cc1OC)C(C(=O)O)C(c1ccccc1)OC2=O (racemic) [trans-9, Cis- and Trans-(±)-3,4-Dihydro-6,7-Dimethoxy-1-Oxo-3-Phenyl-1H-Isochromene-4-Carboxylic Acids]
- inhibition at 100 µM [1]: 1%

SMILES: CCCCCCCCCCC1OC(=O)c2cc(OC)c(OC)cc2C1C(=O)O (racemic) [cis-8, Cis- and Trans-(±)-3-Decyl-3,4-Dihydro-6,7-Dimethoxy-1-Oxo-1H-Isochromene-4-Carboxylic Acids]
- inhibition at 100 µM [1]: 44%
- inhibition at 250 µM [1]: 71%
- inhibition at 1000 µM [1]: 85%
- AIC [2, 4]: −1519.782
- Sy,x [2, 4]: 5.211 × 10^−9
- AIC ([2]; fit to mixed inhibition model): −1562.764
- Sy,x ([2]; fit to mixed inhibition model): 2.987 × 10^−9
- AIC [2, 5]: −1565.380
- Sy,x [2, 5]: 2.947 × 10^−9
- AIC [2, 6]: −1550.555
- Sy,x [2, 6]: 3.547 × 10^−9
- α ([2]; mixed inhibition model): 0.97
- Ki [2]: 130 µM
- Type / mechanism of inhibition [2]: mixed-type inhibitors; also recorded: allosteric inhibitor
- Type / mechanism of inhibition ([2]; listed as cis-3-decyl-6,7-dimethoxy-3,4-dihydroisocoumarin-4-carboxylic acid): mixed inhibition
- α [2, 7]: 1

SMILES: CCCCCCCCCC1OC(=O)c2ccccc2C1C(=O)O (racemic) [cis-3, Cis- and Trans-(±)-3,4-Dihydro-3-Nonyl-1-Oxo-1H-Isochromene-4-Carboxylic Acids]
- inhibition at 100 µM [1]: 9%
- inhibition at 250 µM [1]: 28%
- inhibition at 1000 µM [1]: 97%

SMILES: CCCC1OC(=O)c2ccccc2C1C(=O)O (mixture of isomers) [M2-1, Cis- and Trans-(±)-3-Propyl-3,4-Dihydro-1-Oxo-1H-Isochromene-4-Carboxylic Acids]
- CAT inhibition (%) ([1]; inhibitor 100 μM): 1%
- CAT inhibition (%) ([1]; inhibitor 250 μM): 3%
- CAT inhibition (%) ([1]; inhibitor 1000 μM): 7%

SMILES: CCCCCCCCCCC1OC(=O)c2ccccc2C1C(=O)O (racemic) [trans-4, Cis- and Trans-(±)-3-Decyl-3,4-Dihydro-1-Oxo-1H-Isochromene-4-Carboxylic Acids]
- CAT inhibition (%) ([1]; inhibitor 100 μM, 100 µM): 54%
- CAT inhibition (%) ([1]; inhibitor 250 μM, 250 µM): 79%
- CAT inhibition (%) ([1]; inhibitor 1000 μM): 97%

SMILES: CCCCCCCCCCC1OC(=O)c2ccccc2C1C(=O)O (racemic) [cis-4, Cis- and Trans-(±)-3-Decyl-3,4-Dihydro-1-Oxo-1H-Isochromene-4-Carboxylic Acids]
- CAT inhibition (%) ([1]; inhibitor 100 μM, 100 µM): 31%
- inhibition at 250 µM [1]: 96%
- inhibition at 1000 µM [1]: 97%

SMILES: CCCCCCCCCC1OC(=O)c2cc(OC)c(OC)cc2C1C(=O)O (racemic) [cis-7, Cis- and Trans-(±)-3,4-Dihydro-6,7-Dimethoxy-3-Nonyl-1-Oxo-1H-Isochromene-4-Carboxylic Acids]
- inhibition at 100 µM [1]: 8%
- inhibition at 250 µM [1]: 43%
- inhibition at 1000 µM [1]: 85%

SMILES: CCCCCCCC1OC(=O)c2cc(OC)c(OC)cc2C1C(=O)O (racemic) [cis-6, Cis- and Trans-(±)-3-Heptyl-3,4-Dihydro-6,7-Dimethoxy-1-Oxo-1H-Isochromene-4-Carboxylic Acids]
- inhibition at 1000 µM [1]: 27%

SMILES: CCCCCCCC1OC(=O)c2ccccc2C1C(=O)O (racemic) [cis-2, Cis- and Trans-(±)-3-Heptyl-3,4-Dihydro-1-Oxo-1H-Isochromene-4-Carboxylic Acids]
- inhibition at 100 µM [1]: 3%
- inhibition at 250 µM [1]: 10%
- inhibition at 1000 µM [1]: 16%

SMILES: CCCCCCCCCC1OC(=O)c2ccccc2C1C(=O)O (racemic) [trans-3, Cis- and Trans-(±)-3,4-Dihydro-3-Nonyl-1-Oxo-1H-Isochromene-4-Carboxylic Acids]
- CAT inhibition (%) ([1]; inhibitor 100 μM, 100 µM): 17%
- CAT inhibition (%) ([1]; inhibitor 250 μM, 250 µM): 40%
- CAT inhibition (%) ([1]; inhibitor 1000 μM, 1000 µM): 91%

SMILES: COc1cc2c(cc1OC)C(C(=O)O)C(c1cccc(OC)c1OC)OC2=O (racemic) [cis-10, Cis- and Trans-(±)-3,4-Dihydro-3-(2,3-Dimethoxyphenyl)-6,7-Dimethoxy-1-Oxo-1H-Isochromene-4-Carboxylic Acids]
- inhibition at 100 µM [1]: 1%
- inhibition at 250 µM [1]: 2%
- inhibition at 1000 µM [1]: 12%

Reference: PMC12348882, “Rational Design, Synthesis and In Vitro Activity of Diastereomeric Cis-/Trans-3-Substituted-3,4-Dihydroisocoumarin-4-Carboxylic Acids as Potential Carnitine Acetyltransferase Inhibitors” (Molecules, 2025)
